Bridge positions count the residues as written; N and C are the ends. Square brackets hold non-standard residues; d marks the D form. Peptide text beside a SMILES is read from it. * marks the point of attachment. d(aThr) = C[C@@H](O)[C@@H](N)C(=O)O; Dhb = C/C=C(\N)C(=O)O; Propionyl = CCC(=O)*
Assays:
TRPV1 [1] = molecular target: T1, TRPV1 (Homo sapiens, UniProt Q8NER1); test: TRPV1 antagonism, structure-activity comparison; format: cell-based
human TRPV1 F660A mutant = human TRPV1 F660A mutant (Homo sapiens, UniProt Q8NER1, F660A); test: Calcium flux assay in HEK-293 cells, human TRPV1 F660A mutant; details: 375 μM, pre-incubated (Figure 3)
TRPV1 [2] = molecular target: T1, TRPV1; test: Calcium flux assay in BEAS-2B cells stably overexpressing human TRPV1; format: cell-based; details: capsaicin 2.5 μM
human TRPV1 C578A mutant = human TRPV1 C578A mutant (Homo sapiens, UniProt Q8NER1, C578A); test: Calcium flux assay in HEK-293 cells, human TRPV1 C578A mutant; details: 375 μM, pre-incubated (Figure 3)
human TRPV1 C621A mutant = human TRPV1 C621A mutant (Homo sapiens, UniProt Q8NER1, C621A); test: Calcium flux assay in HEK-293 cells, human TRPV1 C621A mutant; details: 375 μM, pre-incubated (Figure 3)
[3] = system: mutant human TRPV1 variants; test: Calcium flux assay in HEK-293 cells, three further; details: 375 μM, pre-incubated (Figure 3)
human wild type TRPV1 = human wild type TRPV1 (Homo sapiens, UniProt Q8NER1); test: Calcium flux assay in HEK-293 cells transfected with wild-type human TRPV1; format: cell-based; details: for duration of abolished TRPV1 activity after removal of drug: mouse and human TRPV1 channels
TRPV1 [4] = molecular target: TRPV1 (Mus musculus, UniProt Q704Y3); test: Long-term TRPV1 antagonism test in mouse DRG neurons; format: cell-based; details: 125 μM, 5 min incubation
mouse DRG neurons = test: Fluorometric calcium flux assay in mouse DRG primary cell culture; format: cell-based; details: 125 μM final concentration; 25 mM KCl 5 min after application, then capsaicin

human wild type TRPV1, sequence (Q8NER1 whole entry): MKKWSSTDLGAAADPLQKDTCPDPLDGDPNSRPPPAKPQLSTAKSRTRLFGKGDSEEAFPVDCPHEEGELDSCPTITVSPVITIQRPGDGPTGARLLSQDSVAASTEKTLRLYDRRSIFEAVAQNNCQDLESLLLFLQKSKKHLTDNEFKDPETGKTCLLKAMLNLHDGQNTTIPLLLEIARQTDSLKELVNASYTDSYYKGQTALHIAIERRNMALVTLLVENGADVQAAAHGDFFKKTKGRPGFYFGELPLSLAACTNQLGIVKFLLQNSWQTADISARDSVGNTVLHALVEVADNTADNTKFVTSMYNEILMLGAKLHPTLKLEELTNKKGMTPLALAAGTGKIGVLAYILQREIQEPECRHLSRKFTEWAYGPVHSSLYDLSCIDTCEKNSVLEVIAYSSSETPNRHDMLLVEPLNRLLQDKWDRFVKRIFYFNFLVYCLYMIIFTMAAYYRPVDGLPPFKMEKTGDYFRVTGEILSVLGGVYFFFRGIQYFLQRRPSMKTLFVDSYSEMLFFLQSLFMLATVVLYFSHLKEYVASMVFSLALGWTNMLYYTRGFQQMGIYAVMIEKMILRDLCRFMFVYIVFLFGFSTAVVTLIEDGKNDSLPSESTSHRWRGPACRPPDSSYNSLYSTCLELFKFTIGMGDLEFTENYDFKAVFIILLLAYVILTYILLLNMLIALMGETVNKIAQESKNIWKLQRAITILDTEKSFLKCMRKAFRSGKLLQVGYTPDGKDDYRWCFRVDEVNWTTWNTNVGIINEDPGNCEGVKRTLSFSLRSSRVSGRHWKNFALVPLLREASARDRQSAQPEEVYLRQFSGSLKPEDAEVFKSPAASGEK
T1 sequence (Q8NER1 whole entry): as above
human TRPV1 C578A mutant, sequence (Q8NER1 whole entry C578A): as the sequence (Q8NER1 whole entry) above, with C578A counted along it
human TRPV1 C621A mutant, sequence (Q8NER1 whole entry C621A): as the sequence (Q8NER1 whole entry) above, with C621A counted along it
TRPV1 (Mus musculus, UniProt Q704Y3), sequence (Q704Y3 whole entry): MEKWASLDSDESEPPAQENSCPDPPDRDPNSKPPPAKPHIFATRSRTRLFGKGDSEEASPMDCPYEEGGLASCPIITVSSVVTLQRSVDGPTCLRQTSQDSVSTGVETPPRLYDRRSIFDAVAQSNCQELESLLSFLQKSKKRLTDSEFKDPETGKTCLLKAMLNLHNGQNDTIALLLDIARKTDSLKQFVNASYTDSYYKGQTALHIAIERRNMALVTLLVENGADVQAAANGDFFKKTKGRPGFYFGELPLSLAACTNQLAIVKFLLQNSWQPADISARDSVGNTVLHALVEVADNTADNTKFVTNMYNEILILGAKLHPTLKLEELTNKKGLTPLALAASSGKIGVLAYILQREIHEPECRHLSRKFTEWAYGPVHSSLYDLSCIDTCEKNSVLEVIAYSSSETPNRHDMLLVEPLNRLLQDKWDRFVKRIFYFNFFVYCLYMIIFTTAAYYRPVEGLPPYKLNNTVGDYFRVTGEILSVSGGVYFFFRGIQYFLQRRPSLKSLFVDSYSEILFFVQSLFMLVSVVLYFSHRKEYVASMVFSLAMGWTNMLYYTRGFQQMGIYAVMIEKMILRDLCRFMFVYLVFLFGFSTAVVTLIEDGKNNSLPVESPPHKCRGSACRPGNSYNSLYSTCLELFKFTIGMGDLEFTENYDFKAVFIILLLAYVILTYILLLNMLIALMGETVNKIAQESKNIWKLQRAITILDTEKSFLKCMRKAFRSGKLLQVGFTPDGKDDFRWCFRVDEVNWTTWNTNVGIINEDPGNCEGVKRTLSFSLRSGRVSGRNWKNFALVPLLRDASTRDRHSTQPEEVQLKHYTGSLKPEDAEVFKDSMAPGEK
human TRPV1 F660A mutant, sequence (Q8NER1 whole entry F660A): as the sequence (Q8NER1 whole entry) above, with F660A counted along it

Row | SMILES | inhibitory activity (in words) (TRPV1 [1]) | TRPV1 antagonism in F660A mutant (human TRPV1 F660A mutant) | antagonism of capsaicin in direct competition experiments (TRPV1 [2]) | TRPV1 antagonism in C578A mutant (human TRPV1 C578A mutant) | TRPV1 antagonism in C621A mutant (human TRPV1 C621A mutant) | inhibition of three other TRPV1 mutants [3] | duration of abolished TRPV1 activity after removal of drug (human wild type TRPV1) [h] | further results
1 | CC(=O)N[C@@H](Cc1ccccc1)C(=O)N[C@H](CC(C)C)C(=O)N[C@@H](Cc1ccccc1)C(=O)N[C@@H](C(=O)N[C@H](C(=O)N[C@@H](C)C(=O)O)C(C)C)[C@@H](C)O [Compound 6, Nobilamide C] (Ac-F[dL]F[d(aThr)]VA-OH) | Neither 6 nor 1a exhibited detectable activity | – | – | – | – | – | – | –
2 | C/C=C1\NC(=O)[C@H](C)NC(=O)[C@H](C(C)C)NC(=O)[C@H](NC(=O)[C@H](Cc2ccc(O)cc2)NC(=O)[C@@H](CC(C)C)NC(=O)[C@H](Cc2ccccc2)NC(C)=O)[C@@H](C)OC1=O [Compound 8, Nobilamide E] (Ac-F[dL]Y[d(aThr)]VA[Dhb]; ester 4-C) | inactive | – | – | – | – | – | – | –
3 | C/C=C1\NC(=O)[C@H](C)NC(=O)[C@H](C(C)C)NC(=O)[C@H](NC(=O)[C@H](Cc2ccccc2)NC(=O)[C@@H](CC(C)C)NC(=O)[C@@H](Cc2ccccc2)NC(C)=O)[C@@H](C)OC1=O [Compound 2, A-3302-A] (Ac-[dF][dL]F[d(aThr)]VA[Dhb]; ester 4-C) | exhibited inhibitory activity | complete loss of TRPV1 antagonism | antagonize the action of capsaicin on TRPV1 | complete loss of TRPV1 antagonism | complete loss of TRPV1 antagonism | in a manner similar to wild type | > 1 | –
4 | C/C=C(\NC(=O)[C@H](C)NC(=O)[C@@H](NC(=O)[C@H](NC(=O)[C@H](Cc1ccccc1)NC(=O)[C@@H](CC(C)C)NC(=O)[C@@H](Cc1ccccc1)NC(=O)CC)[C@@H](C)O)C(C)C)C(=O)O [Compound 5, Nobilamide B] (Propionyl-[dF][dL]F[d(aThr)]VA[Dhb]-OH) | exhibited inhibitory activity | complete loss of TRPV1 antagonism | antagonize the action of capsaicin on TRPV1 | complete loss of TRPV1 antagonism | complete loss of TRPV1 antagonism | in a manner similar to wild type | > 1 | potency with pre-incubation versus co-application with capsaicin (human wild type TRPV1; 375 μM compound, capsaicin 25 μM (Figure 1)): greatly increased with pre-incubation; stability of inhibitory activity to washes (human wild type TRPV1; 375 μM, 1 h timecourse with washes (Figure 2)): stable through four washes taking place over a 60-min period; rebound of activity (human wild type TRPV1; after washes, human cells): slight rebound of activity was noticed after one hour
5 | C/C=C(\NC(=O)[C@H](C)NC(=O)[C@@H](NC(=O)[C@H](NC(=O)[C@H](Cc1ccccc1)NC(=O)[C@@H](CC(C)C)NC(=O)[C@@H](Cc1ccccc1)NC(C)=O)[C@@H](C)O)C(C)C)C(=O)O [Compound 4, Nobilamide A] (Ac-[dF][dL]F[d(aThr)]VA[Dhb]-OH) | exhibited inhibitory activity | – | – | – | – | – | – | recovery of capsaicin response (TRPV1 [4]; three-hour recovery period): recovery was observed after three hours; capsaicin response after incubation with compound (TRPV1 [4]; capsaicin 100 or 200 nM): initially abolished; response to capsaicin after application of pure compound (mouse DRG neurons): complete loss of response to capsaicin
6 | C/C=C1\NC(=O)[C@H](C)NC(=O)[C@H](C(C)C)NC(=O)[C@H](NC(=O)[C@H](Cc2ccccc2)NC(=O)[C@@H](CC(C)C)NC(=O)[C@@H](Cc2ccccc2)NC(=O)CC)[C@@H](C)OC1=O [Compound 1, A-3302-B] (Propionyl-[dF][dL]F[d(aThr)]VA[Dhb]; ester 4-C) | exhibited inhibitory activity | – | – | – | – | – | – | –

Reference: article PMC3133741 (Journal of medicinal chemistry, 2011)
